Measurements as given in the supplement of paper PMC10307832.

Assays:
Assay in all cases: relative viability (nuclei count vs DMSO), 5 days (fraction); higher = more cells survive
Decitabine + Vorinostat = compound: Nc1ncn([C@H]2C[C@H](O)[C@@H](CO)O2)c(=O)n1 [Decitabine] + O=C(CCCCCCC(=O)Nc1ccccc1)NO [Vorinostat] (partner 1 µM)
Method in brief: (§1)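 Lung cancer cell lines in 1536-well plates got either a single drug or a fixed anchor-drug dose together with five library-drug doses (not always all listed) in √10 steps, by pin tool, on the day after seeding. Nuclei were counted after 5 days, and relative viability is the treated-to-vehicle ratio of nuclei counts. Values are medians of duplicate plates.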

[1] = compound: O=C(C[C@H]1NCCC[C@@H]1O)Cn1cnc2cc(Br)c(Cl)cc2c1=O (racemic) [Halofuginone] + CC(=O)Nc1cccc(-n2c(=O)n(C3CC3)c(=O)c3c(Nc4ccc(I)cc4F)n(C)c(=O)c(C)c32)c1 [Trametinib] (partner 0.02 µM)
Method in brief: as §1

Halofuginone + Dasatinib = compound: O=C(C[C@H]1NCCC[C@@H]1O)Cn1cnc2cc(Br)c(Cl)cc2c1=O (racemic) [Halofuginone] + Cc1nc(Nc2ncc(C(=O)Nc3c(C)cccc3Cl)s2)cc(N2CCN(CCO)CC2)n1 [Dasatinib] (partner 0.075 µM)
Method in brief: as §1

Halofuginone + Olaparib = compound: O=C(C[C@H]1NCCC[C@@H]1O)Cn1cnc2cc(Br)c(Cl)cc2c1=O (racemic) [Halofuginone] + O=C(c1cc(Cc2n[nH]c(=O)c3ccccc23)ccc1F)N1CCN(C(=O)C2CC2)CC1 [Olaparib] (partner 8 µM)
Method in brief: as §1

Cell Line | relative viability (Decitabine + Vorinostat; first compound 0.04 µM) | relative viability (Decitabine + Vorinostat; first compound 0.1265 µM) | relative viability (Decitabine + Vorinostat; first compound 0.4 µM) | relative viability (Decitabine + Vorinostat; first compound 1.265 µM) | relative viability (Decitabine + Vorinostat; first compound 4 µM) | relative viability ([1]; first compound 0.001 µM) | relative viability ([1]; first compound 0.003162 µM) | relative viability ([1]; first compound 0.01 µM) | relative viability ([1]; first compound 0.03162 µM) | relative viability ([1]; first compound 0.1 µM) | relative viability (Halofuginone + Dasatinib; first compound 0.001 µM) | relative viability (Halofuginone + Dasatinib; first compound 0.003162 µM) | relative viability (Halofuginone + Dasatinib; first compound 0.01 µM) | relative viability (Halofuginone + Dasatinib; first compound 0.03162 µM) | relative viability (Halofuginone + Dasatinib; first compound 0.1 µM) | relative viability (Halofuginone + Olaparib; first compound 0.001 µM) | relative viability (Halofuginone + Olaparib; first compound 0.003162 µM) | relative viability (Halofuginone + Olaparib; first compound 0.01 µM) | relative viability (Halofuginone + Olaparib; first compound 0.03162 µM) | relative viability (Halofuginone + Olaparib; first compound 0.1 µM)
NCI-H1793 | 0.462 | 0.631 | 0.552 | 0.382 | 0.325 | 0.483 | 0.524 | 0.363 | 0.503 | 0.327 | 0.374 | 0.37 | 0.418 | 0.468 | 0.296 | 0.988 | 0.852 | 0.814 | 0.902 | 0.294
NCI-H1437 | 0.522 | 0.542 | 0.444 | 0.373 | 0.421 | 0.548 | 0.553 | 0.558 | 0.481 | 0.387 | 0.377 | 0.445 | 0.431 | 0.364 | 0.285 | 0.649 | 0.653 | 0.619 | 0.616 | 0.456
NCI-H358 | 0.257 | 0.209 | 0.14 | 0.0806 | 0.0904 | 0.158 | 0.138 | 0.12 | 0.119 | 0.0998 | 0.175 | 0.188 | 0.115 | 0.0901 | 0.0916 | 0.653 | 0.556 | 0.459 | 0.26 | 0.124
SW 900 | 0.333 | 0.42 | 0.33 | 0.193 | 0.286 | 0.871 | 0.941 |  | 1.03 | 0.534 | 1 | 0.677 | 0.555 | 0.616 | 0.163 | 0.805 | 0.851 |  | 0.733 | 0.197
NCI-H1355 | 0.496 | 0.554 | 0.34 | 0.3 | 0.256 | 0.481 | 0.429 | 0.4 | 0.415 | 0.4 | 0.762 | 0.764 | 0.727 | 0.692 | 0.458 | 0.785 | 0.805 | 0.611 | 0.754 | 0.7
SK-LU-1 | 0.611 | 0.65 | 0.443 | 0.453 | 0.433 | 0.572 | 0.504 | 0.559 | 0.461 | 0.321 | 0.204 | 0.211 | 0.198 | 0.183 | 0.137 | 0.488 | 0.444 | 0.477 | 0.454 | 0.312
NCI-H2228 | 0.221 | 0.304 | 0.16 | 0.169 | 0.179 | 0.662 | 0.4 | 0.436 | 0.39 | 0.0996 | 0.622 | 0.488 | 0.48 | 0.236 | 0.0746 | 0.669 | 0.627 | 0.461 | 0.184 | 0.124
NCI-H2170 | 0.582 | 0.568 | 0.414 | 0.28 | 0.257 | 0.856 | 0.852 | 0.954 | 0.948 | 0.868 | 0.623 | 0.639 | 0.575 | 0.444 | 0.473 | 0.64 | 0.593 | 0.589 | 0.605 | 0.551
NCI-H2347 | 0.522 | 0.542 | 0.521 | 0.379 | 0.424 | 0.256 | 0.284 | 0.289 | 0.258 | 0.253 | 0.299 | 0.308 | 0.334 | 0.281 | 0.194 | 0.537 | 0.583 | 0.565 | 0.518 | 0.43
A-427 | 0.789 | 0.732 | 0.526 | 0.411 | 0.396 | 0.823 | 0.787 | 0.742 | 0.714 | 0.634 | 0.744 | 0.773 | 0.678 | 0.723 | 0.643 | 0.826 | 0.695 | 0.77 | 0.704 | 0.597
HCC-366 | 0.235 | 0.313 | 0.138 | 0.0554 | 0.0657 | 0.395 | 0.404 | 0.338 | 0.322 | 0.166 | 0.709 | 0.804 | 0.684 | 0.66 | 0.414 | 0.337 | 0.319 | 0.351 | 0.328 | 0.0775
HCC-78 | 0.54 | 0.476 | 0.477 | 0.448 | 0.346 | 0.775 | 0.718 | 0.709 | 0.766 | 0.503 | 0.44 | 0.364 | 0.357 | 0.4 | 0.503 | 1.01 | 0.74 | 0.849 | 0.858 | 0.532
PC-14 | 0.0877 | 0.265 | 0.125 | 0.0989 | 0.0956 | 0.809 | 0.618 | 0.702 | 0.154 | 0.0395 | 0.259 | 0.305 | 0.189 | 0.0636 | 0.03 | 0.383 | 0.333 | 0.406 | 0.218 | 0.0499
